From patent US9278068B2, “Vesicle compositions” (Sensulin LLC, priority 2011, dated 2016)

Legend:
HeLa cells = experiment: MTT assay for cytotoxicity; settings: 2 h
NF-κB = NF-κB assay for inflammation (nuclear translocation of NF-κB, immunocytochemistry, PCC); settings: HeLa cells; for Inflammation (PCC) 40 nM / Inflammation (PCC) 80 nM / Inflammation (PCC) 160 nM: 2 h, PCC between nuclear and cytoplasmic fraction of NF-κB; for nuclear or cytoplasmic localization of NF-κB (FIG. 4 images): boronic acids 80 nM, 2 hrs, LPS positive control
Method: 15,000 HeLa cells were plated in 96 well plates the night before the experiments. On the day of the experiments, the cells were treated with the boronic acids (Table 1, below) at three different concentrations (40 nM, 80 nM, and 160 nM) for 2 h. At the end of the incubation, cells were washed with phosphate buffered saline (PBS) and were fixed in 4% paraformaldehyde for 15 min and permeablized with 0.01% Triton X-100 in PBS for 10 min. The cells were washed with PBS three times. Nonspecific sites were blocked with 5% bovine serum albumin (BSA) in PBS and incubated with the Anti-NF-κB for 1 h, followed by incubation with fluorescein isothiocyanate (FITC)-labeled secondary antibody. After washing the cells at the end of the incubation, the cells were treated with 4′,6-diamidino-2-phenylindole (DAPI) for 1 min and kept at 4° C. until further analysis. Images of the cells were acquired with a Beckman-Coulter 100 automated high-throughput microscope system and analyzed using Cytseer software (Vala Sciences, CA). The co-localization of NF-κB was quantified by measuring the PCC between the nuclear and cytoplasmic fraction of the NF-κB molecule. The PCC is a measure of the overlap between the pixel intensities of the nuclear and NF-κB images of the same cell. The PCC values can range from −1 to 1. […] A negative correlation (negative PCC value) indicates an absence of nuclear translocation.

| Compound | MTT (% Cell Survival) 40 nM (HeLa cells) | MTT (% Cell Survival) 80 nM (HeLa cells) | MTT (% Cell Survival) 160 nM (HeLa cells) | Inflammation (PCC) 40 nM (NF-κB) | Inflammation (PCC) 80 nM (NF-κB) | Inflammation (PCC) 160 nM (NF-κB) | nuclear or cytoplasmic localization of NF-κB (FIG. 4 images) (NF-κB) |
| --- | --- | --- | --- | --- | --- | --- | --- |
| CC(C)[Si](C(C)C)(C(C)C)n1ccc(B(O)O)c1 [1-(triisopropylsilyl)pyrrol-E-3-boronic acid] | 72.92% | 65.92% | 56.94% | −0.0781 | 0.00445 | 0.169. | – |
| lipopolysaccharide [LPS, reference compound] | – | – | – | – | – | – | nuclear translocation of NF-κB |
| COc1cccc(OC)c1B(O)O [2,6-dimethoxyphenylboronic acid] | 92.66% | 78.05% | 48.60% | −0.0679 | 0.03888 | 0.2607 | – |
| OB(O)c1cncc(Br)c1 [5-bromopyridine-3-boronic acid] | 134.748% | 37.2764% | 30.04% | −0.038 | 0.1311 | 0.2913 | – |
| OB(O)c1cscc1Br [3-bromothiophene-4-boronic acid] | 76.45% | 95.90% | 97.49% | −0.0695 | 0.1568 | 0.1528 | – |
| CC(=O)c1ccc(B(O)O)s1 [5-acetyl-2-thiopheneboronic acid] | 84.50% | 82.81% | 51.27% | 0.02454 | 0.06312 | 0.2343 | – |
| OB(O)c1cccc(OCc2ccccc2)c1 [3-(benzyloxy)phenylboronic acid] | 99.83% | 71.94% | 28.92% | −0.1159 | 0.0809 | 0.3768 | – |
| OB(O)c1ccsc1 [3-thienylboronic acid] | 90.42% | 80.00% | 49.85% | −0.0062 | 0.1457 | 0.05963 | – |
| Cc1noc(C)c1B(O)O [3,5-dimethylisoxazole-4-boronic acid] | 88.37% | 90.63% | 42.89% | −0.061 | 0.0057 | −0.01277 | – |
| OB(O)c1cnn(Cc2ccccc2)c1 [1-benzyl-1H-pyrazole-4-boronic acid] | 100.88% | 62.54% | 86.11% | −0.1081 | −0.0841 | 0.03839 | – |
| OB(O)c1ccnc(Cl)c1 [2-chloropyridine-4-boronic acid] | 84.93% | 58.47% | 56.36% | −0.1195 | 0.00374 | 0 | – |
| OB(O)c1cccc2c1Sc1ccccc1S2 [thianthrene-1-boronic acid] | 64.19% | 61.32% | 81.10% | −0.0683 | 0.0268 | 0.1094 | – |
| OB(O)c1cc(Br)cs1 [3-bromothiophene-5-boronic acid] | 116.67% | 97.63% | 62.08% | −0.1162 | −0.023 | 0.1539 | – |
| O=[N+]([O-])/C=C/c1cccc(B(O)O)c1 [3-[(E)-2-nitrovinyl]phenylboronic acid] | 116.00% | 96.38% | 73.93% | −0.0456 | −0.0517 | 0.2058 | – |
| O=C(O)c1cc(B(O)O)cc([N+](=O)[O-])c1 [3-carboxy-5-nitrophenylboronic acid] | 54.3094% | 46.2431% | 33.3% | −0.0136 | 0.03893 | 0.1227 | – |
| OB(O)c1cccc2cnccc12 [5-isoquinolineboronic acid] | 75.80% | 60.84% | 41.69% | −0.0412 | 0.02463 | 0.2784 | predominantly nuclear NF-κB |
